The values that follow come from ChEMBL document CHEMBL1155592, “New antibacterial metabolites from the cyanobacterium Nostoc commune(EAWAG 122b)” (2000).

In test [1] the test system is Bacillus cereus. Put plainly: Antibacterial activity against Bacillus cereus ATCC 10702. Type of test: functional.
In test [2] the test system is Staphylococcus epidermidis. Put plainly: Antibacterial activity against Staphylococcus epidermidis ATCC 12228. The test is classed as functional.

Values after ≈ are worked out from the molar mass of the structure shown.

On to `Cc1ccc(O)c2c1C(=O)c1cccc(O)c1C2=O`, for which the minimal inhibitory concentration (MIC) in test [1] and in test [2] was 32 mg/L (≈ 126 µM) each time.

As to `C[C@@H]1C[C@H](O)C2=C3[C@@H](C[C@@H]4C(C)(C)[C@H](O)CC[C@@]24C)Oc2ccc(C(=O)O)cc2C[C@@]31C`, the MIC in test [1] worked out at 128 mg/L (≈ 291 µM); in test [2] it was 4 mg/L (≈ 9.08 µM).

Consider `Cc1ccc(O)c2c1C(=O)CC2`, for which the figures for the minimum inhibitory concentration (MIC) in test [1] and in test [2] were 64 mg/L (≈ 395 µM) and 128 mg/L (≈ 789 µM), respectively.

`O=C(N[C@H](CO)[C@H](O)c1ccc([N+](=O)[O-])cc1)C(Cl)Cl` [CHLORAMPHENICOL]: the results for the MIC in test [1] and in test [2] were 8 mg/L (≈ 24.8 µM) and 4 mg/L (≈ 12.4 µM), respectively.
